# Measured values as given in patent US20260294915A1, “COMBINATION THERAPY COMPRISING A MAT2A INHIBITOR AND A TOPOISOMERASE INHIBITOR, A SPLICING INHIBITOR SULFONAMIDE, OR A KIF18 INHIBITOR” (IDEAYA BIOSCIENCES, INC., priority 2023, published 2026).
# Read-outs that look alike come from different tables or passages of the source.
# Legend:
# Type in all cases: cell-based
# [1] = system: NCI-H520; assay: 10-day proliferation (CTG), SPLAM titration + 1000 nM Compound A, Bliss (Example 5; Tables 12-19); design: key: −100 to 100; 0 = cell number at T0, <0 = cytotoxic; conditions: for GDI (growth death index), single agent Cmpd A: NCI-H520, 1000 nM Compound A
# Experimental: (§1) A 10-day proliferation assay was performed in a panel of 5 MTAP-deficient and 2 wild type non-small cell lung and bladder cancer cell lines. Optimal cell seeding for all cell lines was determined by assessing the growth over a range of seeding densities in a 384-well format to identify conditions that permitted proliferation for 10 days. Cells were then plated at the optimal seeding density and treated with 20-point, two-fold dilution series of each of four structurally different SPLAMs in combination with a 1000 nM fixed concentration of Compound A. Single agent titrations for Compound A and each SPLAM were included for comparison. Concentrations tested for each SPLAM alone or in combination ranged from 0.04 nM to 20,000 nM. A plate of cells was harvested at the time of compound addition to quantify the number of cells at the start of the combination (T0). For cell quantification, the harvested cells were lysed with Promega CellTiter-Glo (CTG) reagent according to the manufacturer's protocol and the chemiluminescent signal was detected as described in Example 1 above. Cells were incubated with the drug combinations at 37° C. with 5% CO2 for 10 days. Cells were then lysed with CTG and the chemiluminescent signal was measured.
# (§2) CTG values obtained after the 10-day treatment were background subtracted and expressed as a percent of the T0 value set at 100%. Data were plotted against compound concentration and fit with a four-parameter equation to generate single agent dose response curves. Percent inhibition was determined for each combination and single agent concentration compared to a DMSO control. In addition, the overall net growth or death of the cells was calculated and reported as a growth death index (GDI) value on a scale of −100 to 100 with the midpoint (0) being the number of cells at the beginning of the combination (T0).
# (§3) Predicted inhibition was calculated using (Ea+Eb)−(Ea*Eb) where E equals the effect (inhibition) of each single agent (a and b). A difference between the observed inhibition percentage and the predicted inhibition percentage greater than 10% was considered synergistic. A Bliss score was only reported for combinations eliciting >20% growth inhibition (GDI value <80). Since Bliss is calculated based on growth inhibition, scores within cytotoxic dose ranges may not accurately reflect synergistic cytoxicity.
# (§4) Synergy was measured across the Indisulam titration with 1000 nM Compound A by Bliss Independence analysis. Bliss scores >10 are indicated by “*” and are considered synergistic. […] Synergy as reported using Bliss may be underrepresented within cytotoxic dose ranges. Growth death index values are shown for the combination titration and each single agent Compound A (Cmpd A) and Indisulam on a scale of −100 to 100 with the midpoint (0) being the number of cells at the beginning of the combination (T0). Scores less than 0 are highlighted black and are representative of a cytotoxic response. Bliss and GDI values are shown for five MTAP-deficient cell lines: NCI-H520 (13A), TCCSUP (13B).
# (§5) Synergy was measured across the E7820 titration with 1000 nM Compound A by Bliss Independence analysis. Bliss scores >10 are indicated by “*” and are considered synergistic. […] Synergy as reported using Bliss may be underrepresented within cytotoxic dose ranges. Growth death index values are shown for the combination titration and each single agent Compound A (Cmpd A) and Indisulam on a scale of −100 to 100 with the midpoint (0) being the number of cells at the beginning of the combination (T0). Scores less than 0 are indicated by “**” and are representative of a cytotoxic response. Bliss and GDI values are shown for five MTAP-deficient cell lines: NCI-H520 (15A), TCCSUP (15B).
# (§6) Synergy was measured across the Chloroquinoxaline Sulfonamide titration with 1000 nM Compound A by Bliss Independence analysis. Bliss scores >10 are indicated by and are considered synergistic.
# [2] = system: TCCSUP; assay: as above; design: key: −100 to 100; 0 = cell number at T0, <0 = cytotoxic; conditions: for GDI (growth death index), single agent Cmpd A: TCCSUP, 1000 nM Compound A
# Experimental: as §1, §2, §3, §4, §5, §6
# [3] = system: TCCSUP; assay: 10-day proliferation (CTG), equimolar Compound A + SPLAM (Example 4); conditions: single agent or 1:1 combo; for IC80: read-out: gIC80; for IC90: read-out: gIC90; for IC50: Homo sapiens, TCC-SUP, read-out: gIC50
# Experimental: A 10-day proliferation assay was performed in a panel of 5 MTAP-deficient and 2 wild type non-small cell lung and bladder cancer cell lines. Optimal cell seeding for all cell lines was determined by assessing the growth over a range of seeding densities in a 384-well format to identify conditions that permitted proliferation for 10 days. Cells were then plated at the optimal seeding density and treated with 20-point, two-fold dilution series of Compound A, the splicing inhibitor sulfonamide (SPLAM), or an equimolar combination of Compound A and the SPLAM. Combinations tested included Compound A in combination with four structurally different SPLAMs. Concentrations tested for Compound A and each SPLAM alone or in combination ranged from 0.04 nM to 20,000 nM. A plate of cells was harvested at the time of compound addition to quantify the number of cells at the start of the combination (T0). For cell quantification, the harvested cells were lysed with Promega CellTiter-Glo (CTG) reagent according to the manufacturer's protocol and the chemiluminescent signal was detected on a Synergy Neo plate reader. CTG estimates cell number through detection of cellular ATP levels. Cells were incubated with the drug combinations at 37° C. with 5% CO2 for 10 days. Cells were then lysed with CTG and the chemiluminescent signal was measured.
# CTG values obtained after the 10-day treatment were background subtracted and expressed as a percent of the T0 value. Data were plotted against compound concentration and fit with a four-parameter equation to generate dose response curves for each single agent and the equimolar combination. Growth ICx (gICx) values ranging from gIC30 to gIC100 were interpolated from the fitted curves. Synergistic growth inhibition was assessed by determination of Combination Index (CI) values at these various points across the titration using the mutually non-exclusive equation [Chou, 1983; Chou, 1981] shown below where A equals the gICx value of Compound A, B equals the gICx value of the SPLAM, and A+B or B+A equals the gICx value of the equimolar combination. A Combination Index value less than 1.0 was considered synergistic.
# [4] = SPLAM 0.04 nM, alone or + 1 uM Cmpd A
# [5] = SPLAM 0.1 nM, alone or + 1 uM Cmpd A
# [6] = SPLAM 0.2 nM, alone or + 1 uM Cmpd A
# [7] = SPLAM 0.3 nM, alone or + 1 uM Cmpd A
# [8] = SPLAM 0.6 nM, alone or + 1 uM Cmpd A
# [9] = SPLAM 1.2 nM, alone or + 1 uM Cmpd A
# [10] = SPLAM 2.4 nM, alone or + 1 uM Cmpd A
# [11] = SPLAM 4.9 nM, alone or + 1 uM Cmpd A
# [12] = SPLAM 9.8 nM, alone or + 1 uM Cmpd A
# [13] = SPLAM 19.5 nM, alone or + 1 uM Cmpd A
# [14] = SPLAM 39.1 nM, alone or + 1 uM Cmpd A
# [15] = SPLAM 78.1 nM, alone or + 1 uM Cmpd A
# [16] = SPLAM 156.3 nM, alone or + 1 uM Cmpd A
# [17] = SPLAM 312.5 nM, alone or + 1 uM Cmpd A
# [18] = SPLAM 625 nM, alone or + 1 uM Cmpd A
# [19] = SPLAM 1250 nM, alone or + 1 uM Cmpd A
# [20] = SPLAM 2500 nM, alone or + 1 uM Cmpd A
# [21] = SPLAM 5000 nM, alone or + 1 uM Cmpd A
# [22] = SPLAM 10000 nM, alone or + 1 uM Cmpd A
# [23] = SPLAM 20000 nM, alone or + 1 uM Cmpd A
compound,measurement,setting,value
"Cc1ccc(NS(=O)(=O)c2cccc(C#N)c2)c2[nH]cc(C#N)c12 [Compound E7820, 3-cyano-N-(3-cyano-4-methyl-1H-indol-7-yl)benzenesulfonamide]",GDI,[1]; [4],100
same,GDI,[1]; [5],100
same,GDI,[1]; [6],100
same,GDI,[1]; [7],100
same,GDI,[1]; [8],100
same,GDI,[1]; [9],100
same,GDI,[1]; [10],100
same,GDI,[1]; [11],100
same,GDI,[1]; [12],100
same,GDI,[1]; [13],100
same,GDI,[1]; [14],100
same,GDI,[1]; [15],100
same,GDI,[1]; [16],100
same,GDI,[1]; [17],82
same,GDI,[1]; [18],54
same,GDI,[1]; [19],32
same,GDI,[1]; [20],21
same,GDI,[1]; [21],11
same,GDI,[1]; [22],8
same,GDI,[1]; [23],5
same,GDI,[2]; [4],100
same,GDI,[2]; [5],100
same,GDI,[2]; [6],100
same,GDI,[2]; [7],100
same,GDI,[2]; [8],100
same,GDI,[2]; [9],100
same,GDI,[2]; [10],100
same,GDI,[2]; [11],100
same,GDI,[2]; [12],100
same,GDI,[2]; [13],100
same,GDI,[2]; [14],100
same,GDI,[2]; [15],100
same,GDI,[2]; [16],100
same,GDI,[2]; [17],100
same,GDI,[2]; [18],100
same,GDI,[2]; [19],100
same,GDI,[2]; [20],100
same,GDI,[2]; [21],92
same,GDI,[2]; [22],91
same,GDI,[2]; [23],78
same,gIC30,[3]; 10 days,20 µM
same,gIC40,[3]; 10 days,20 µM
same,gIC60,[3]; 10 days,20 µM
same,gIC70,[3]; 10 days,20 µM
same,gIC100,[3]; 10 days,20 µM
same,IC80,[3]; 10 days,20 µM
same,IC90,[3]; 10 days,20 µM
same,IC50,"[3]; 240 h, 10 days",20 µM
Nc1nc(=O)n(-c2ccccc2Cl)c2nc(C(F)(F)F)ccc12 [Compound A],"GDI (growth death index), single agent Cmpd A",[1]; Table 17A,100
same,"GDI (growth death index), single agent Cmpd A",[1]; Table 19A,100
same,GDI,"[1]; single agent Cmpd A, 1000 nM",100
same,"GDI (growth death index), single agent Cmpd A",[2]; Table 17B,84
same,"GDI (growth death index), single agent Cmpd A",[2]; Table 19B,84
same,GDI,"[2]; single agent Cmpd A, 1000 nM",84
same,gIC30,[3]; 10 days,14.461 µM
same,gIC40,[3]; 10 days,19.467 µM
same,gIC60,[3]; 10 days,20 µM
same,gIC70,[3]; 10 days,20 µM
same,gIC100,[3]; 10 days,20 µM
same,IC50,"[3]; 240 h, 10 days",20 µM
same,IC50,[3],20 µM
same,gIC30,[3],14.461 µM
same,gIC40,[3],19.467 µM
same,gIC60,[3],20 µM
same,gIC70,[3],20 µM
same,gIC100,[3],20 µM
"NS(=O)(=O)c1ccc(S(=O)(=O)Nc2cccc3c(Cl)c[nH]c23)cc1 [Indisulam, N-(3-chloro-1H-indol-7-yl)benzene-1,4-disulfonamide]",GDI,[1]; [4],95
same,GDI,[1]; [5],100
same,GDI,[1]; [6],100
same,GDI,[1]; [7],100
same,GDI,[1]; [8],100
same,GDI,[1]; [9],100
same,GDI,[1]; [10],100
same,GDI,[1]; [11],100
same,GDI,[1]; [12],100
same,GDI,[1]; [13],100
same,GDI,[1]; [14],100
same,GDI,[1]; [15],100
same,GDI,[1]; [16],100
same,GDI,[1]; [17],97
same,GDI,[1]; [18],45
same,GDI,[1]; [19],25
same,GDI,[1]; [20],12
same,GDI,[1]; [21],6
same,GDI,[1]; [22],6
same,GDI,[1]; [23],2
same,GDI,[2]; [4],100
same,GDI,[2]; [5],100
same,GDI,[2]; [6],100
same,GDI,[2]; [7],100
same,GDI,[2]; [8],100
same,GDI,[2]; [9],100
same,GDI,[2]; [10],100
same,GDI,[2]; [11],100
same,GDI,[2]; [12],100
same,GDI,[2]; [13],100
same,GDI,[2]; [14],100
same,GDI,[2]; [15],100
same,GDI,[2]; [16],100
same,GDI,[2]; [17],100
same,GDI,[2]; [18],100
same,GDI,[2]; [19],100
same,GDI,[2]; [20],100
same,GDI,[2]; [21],100
same,GDI,[2]; [22],86
same,GDI,[2]; [23],70
same,gIC30,[3]; 10 days,20 µM
same,gIC40,[3]; 10 days,20 µM
same,gIC60,[3]; 10 days,20 µM
same,gIC70,[3]; 10 days,20 µM
same,gIC100,[3]; 10 days,20 µM
same,IC80,[3]; 10 days,20 µM
same,IC90,[3]; 10 days,20 µM
same,IC50,"[3]; 240 h, 10 days",20 µM
